This is an account of results in PMC4859512, “Polyamino-Isoprenic Derivatives Block Intrinsic Resistance of P. aeruginosa to Doxycycline and Chloramphenicol In Vitro” (PLoS ONE, 2016).

Where “and” joins values, the source holds several entries; their conditions need not be identical. Equal entries are not always repeated. Where only a bound is given, the exact number is not on record here.

The subject of assay [1] is outer membrane of P. aeruginosa PA01. Put plainly: Outer membrane permeation assay (nitrocefin hydrolysis).
Description: An overnight culture of PA01 was diluted 100-fold into 10 ml MHII broth containing 0.01 μg/ml of imipenem to induce a higher level of β-lactamases. […] Absorbance at 490 nm was monitored by spectrophotometry using an Infinite M200 microplate reader (Tecan) over 60 min. Experiments were performed in triplicate.
The next assay deals with CHO-K1 cells. Put plainly: cells. Type of assay: cell-based, Chinese Hamster. The conditions noted are these: Cricetulus griseus, CHO-K1; WST1, 24 h; mean +/- SD, 2 independent experiments. The method, then:
CHO-K1 cells (ATCC-LGC Standards Sarl (Molsheim, France) and human fibroblasts (Clinisciences, Paris, France) were maintained in McCoy’s 5A and DMEM media, respectively, supplemented with 10% bovine calf serum, 2 mM glutamine, and 100 U/mL/10 μg/mL penicillin/streptomycin. They were incubated at 37°C in a humidified atmosphere containing 5% CO2. The cell lines were seeded in 96-well plates and incubated overnight. The cytotoxic effects of compounds were assessed by the colorimetric WST-1 cell proliferation assay as previously described. Briefly, a range of compound concentrations from 30 μM to 1200 μM was added to triplicate cultures, and cells were incubated at 37°C for 24 h. At the end of the incubation period, cultures were washed three times with phosphate buffer saline (PBS) and incubated in fresh culture medium containing 10% WST-1 for an additional 30 min. Cell viability was evaluated by measuring the WST-1 absorbance at 450 nm in a microplate spectrophotometer MRX1 II (Dynex technologies, Chantilly, VA, USA). The Inhibitory Concentration 50% (IC50) was chosen to evaluate the cytotoxicity of compounds. IC50 was defined as the concentration of a compound that induced a 50% decrease in viable cells. Doxorubicin was used as a positive control.

For assay [2], the system named is P. aeruginosa CMZ091 (Mex XY overproducer). Put plainly: Antibiotic susceptibility testing (broth micro-dilution MIC), strain CMZ091. The format is cell-based, Pseudomonas aeruginosa.
Assay [3] deals with P. aeruginosa PT629 (Mex AB overproducer). The assay is described as follows: Antibiotic susceptibility testing (broth micro-dilution MIC), strain PT629. The format is cell-based, Pseudomonas aeruginosa.
Assay [4] relates to P. aeruginosa PA01 ERY^R (Mex CD overproducer). Put plainly: microbe, parasite or virus in culture. Type of assay: cell-based, Pseudomonas aeruginosa.
A further assay relates to P. aeruginosa PA01. The assay is described as follows: Comparison of efficiency between compounds and PAßN (compound gradient with 2 mg/L doxycycline). Type of assay: cell-based, Pseudomonas aeruginosa. Particulars: for concentration needed to inhibit growth in the presence of doxycycline: PA01, doxycycline 2 mg/L, 18 h. The method, then:
Serial dilutions of each compound (from 270 μM to 0.95 μM for PAßN and from 135 μM to 0.06 μM for 3) were prepared in microplates. Doxycycline (2 mg/L) was then added to each well before inoculation of bacteria (5x10^5 cfu/mL). Optical density (600 nm) was measured after 18 hours at 37°C. Only the relevant part of the graphs are shown. Experiments were performed in triplicate.
First, we performed a checkerboard assay to analyze the synergy between doxycycline and the polyamino-isoprenic compound and between doxycycline and PAβN. For both, compound 3 and PAβN we observed a synergistic inhibition of growth when combined with doxycycline with a FIC Index of 0.09 (S2 Table). […] PAßN is generally used at a concentration greater than 10 μM to inhibit the resistance of P. aeruginosa with respect to various antibiotics, and, to our knowledge, no data have been reported in the literature on its use in combination with doxycycline. The percentage of growth inhibition was monitored as a function of compound concentration, and the results are presented in Fig 3.

[5] abbreviates: Pseudomonas aeruginosa, read-out: Minimal Inhibitory Concentration.

Turning to `CC(C)=CCCC(C)=CCCC(C)=CCNCCCNCCCCNCCCN` [Compound 3], the “outer membrane permeation efficacy” value in assay [1] (compound at 15.6μM, p value ≤ 0.05) was “significantly identical to 31.25μM of PMBN”. In addition, in assay [1] (compound at 31.25μM, relative to 250 μM polymyxin-B), the “outer membrane permeation activity” value is on record as 10%. Further, in the assay on CHO-K1 cells, the midpoint of inhibition, the IC50, lay at 320 ± 41.2 µM. The “MIC of Amikacin in the presence of the compound” value in assay [2] (CMZ091, compound 10µM) was above 64 µg/mL; in assay [3] (PT629, compound 10µM), 64 µg/mL; in assay [4] (PA01 ERY R, compound 10µM) it was 32 µg/mL. Also, the “MIC of Ceftazidime in the presence of the compound” value is 2 µg/mL in assay [2] (CMZ091, compound 10µM); 8 µg/mL in assay [3] (PT629, compound 10µM); 2 µg/mL in assay [4] (PA01 ERY R, compound 10µM). Further, the “MIC of Ciprofloxacin in the presence of the compound” value in assay [2] (CMZ091, compound 10µM) worked out at 0.25 µg/mL; in assay [3] (PT629, compound 10µM), 0.5 µg/mL; in assay [4] (PA01 ERY R, compound 10µM), 0.125 µg/mL. Besides, the “MIC of Ticarcillin in the presence of the compound” value was 8 µg/mL in assay [2] (CMZ091, compound 10µM); 64 µg/mL in assay [3] (PT629, compound 10µM); 16 µg/mL in assay [4] (PA01 ERY R, compound 10µM). The MIC was 25 µg/mL and 62.5 µM in assay [2] (setting [5]); 25 µg/mL and 62.5 µM in assay [3] (setting [5]); 25 µg/mL and 62.5 µM in assay [4] (setting [5]). Besides, the “concentration needed to inhibit growth in the presence of doxycycline” value in the assay with P. aeruginosa PA01 is around 1.22 mg/L; with P. aeruginosa PA01 (graphically determined on Fig 3), “approximately 3 μM”. For the same compound, in the assay on P. aeruginosa PA01 (adjuvant of doxycycline), the “potency in comparison with PAßN” value is given as “approximately 10 times”.
